For 26 molecules, EC50, inhibition and Activity results are on record in ChEMBL document CHEMBL1759904, “Synthesis and application of a bromomethyl substituted scaffold to be used for efficient optimization of anti-virulence activity” (Eur J Med Chem, 2011).

The subject of data set [1] is Escherichia coli. Put plainly: Antibacterial activity against Escherichia coli UTI89 assessed as inhibition of biofilm formation after 24 hrs. The format is functional, organism-based. The settings on record: UTI89, 24 h.
Data set [2] relates to Escherichia coli. Put plainly: Antibacterial activity against Escherichia coli UTI89 assessed as inhibition of biofilm formation at 200 uM after 24 hrs. It counts as functional. The following applies: for inhibition at 200 µM: UTI89, 24 h.
Another data set relates to HeLa. Put plainly: Cytotoxicity against human HeLa cells after 24 hrs by calcein AM based spectrophotometric analysis. It counts as cell-based.
For data set [3], the system named is Escherichia coli. Put plainly: Antibacterial activity against Escherichia coli UTI89 assessed as number of wells with agglutination by hemagglutinination assay in presence of 500 uM pilicide. The format is functional.

Active and inactive are the calls of the source. The rule behind the calls is not given here.

Consider `O=C(O)[C@@H]1CSc2c(-c3cccc(C(F)(F)F)c3)c(CNS(=O)(=O)c3cccc4ccccc34)cc(=O)n21`, for which the concentration giving a half-maximal response (EC50) in the data set on Escherichia coli [1] turned out to be 38 µM. In the data set on Escherichia coli [2], the inhibition at 200 µM came to 91%. Further, the Activity entry with HeLa is reported as “Non-toxic”.

`O=C(O)[C@@H]1CSc2c(-c3cccc(C(F)(F)F)c3)c(Cc3cccc4ccccc34)cc(=O)n21`: in the data set on Escherichia coli [1], the EC50 stood at 17 µM. The inhibition at 200 µM in the data set with Escherichia coli [2] was 92%. Also, the Activity in the data set on Escherichia coli [3] is on record as 5; with HeLa, “Non-toxic”.

For `O=C(NCc1cc(=O)n2c(c1-c1cccc(C(F)(F)F)c1)SC[C@H]2C(=O)O)c1cccc2ccccc12`, in the data set on Escherichia coli [1], the EC50 worked out at 130 µM. In addition, the inhibition at 200 µM in the data set on Escherichia coli [2] was 65%.

Regarding `O=C(O)[C@@H]1CSc2c(C3CC3)c(CN3CCOCC3)cc(=O)n21`, the inhibition entry with Escherichia coli [2] was “inactive”.

Turning to `O=C(O)[C@@H]1CSc2c(C3CC3)c(CN3CCCCC3)cc(=O)n21`, the inhibition entry with Escherichia coli [2] was “inactive”.

For `O=C(O)[C@@H]1CSc2c(-c3cccc(C(F)(F)F)c3)c(COc3ccccc3)cc(=O)n21`, in the data set on Escherichia coli [1], the EC50 is 21 µM. In addition, the inhibition at 200 µM in the data set with Escherichia coli [2] turned out to be 80%. The Activity result in the data set on HeLa is on record as “Non-toxic”.

Turning to `O=C(O)[C@@H]1CSc2c(-c3cccc(C(F)(F)F)c3)c(CN3CCOCC3)cc(=O)n21`, the inhibition result in the data set with Escherichia coli [2] is “inactive”.

Turning to `COc1ccc2cc(Cc3cc(=O)n4c(c3-c3cccc(C(F)(F)F)c3)SC[C@H]4C(=O)O)ccc2c1`, the half-maximal effective concentration (EC50) in the data set with Escherichia coli [1] came to 9 µM. For the same molecule, the inhibition at 200 µM in the data set on Escherichia coli [2] was determined as 93%. Besides, the figures for the Activity with Escherichia coli [3] and with HeLa were 5.5 and “Non-toxic”, respectively.

`O=C(NCc1cc(=O)n2c(c1C1CC1)SC[C@H]2C(=O)O)c1ccccc1`: the inhibition entry in the data set on Escherichia coli [2] is “inactive”.

As for `O=C(O)[C@@H]1CSc2c(C3CC3)c(Cc3ccc4[nH]ccc4c3)cc(=O)n21`, in the data set on Escherichia coli [2], the inhibition at 200 µM came to 37%.

Turning to `O=C(O)[C@@H]1CSc2c(C3CC3)c(Cc3cccc(OCc4ccc(F)cc4)c3)cc(=O)n21`, in the data set on Escherichia coli [1], the EC50 worked out at 43 µM. Also, the inhibition at 200 µM in the data set on Escherichia coli [2] turned out to be 76%. In addition, the Activity entry in the data set on HeLa is “Non-toxic”.

For `O=C(O)[C@@H]1CSc2c(-c3cccc(C(F)(F)F)c3)c(COc3cccc4ccccc34)cc(=O)n21`, the EC50 in the data set on Escherichia coli [1] is 37 µM. For the same molecule, the inhibition at 200 µM in the data set on Escherichia coli [2] worked out at 72%. Besides, the Activity in the data set with Escherichia coli [3] is 5; in the data set on HeLa it was “Non-toxic”.

As for `O=C(O)[C@@H]1CSc2c(C3CC3)c(COc3ccccc3)cc(=O)n21`, the inhibition at 200 µM with Escherichia coli [2] is 43%.

With `COc1ccc2cc(Cc3cc(=O)n4c(c3C3CC3)SC[C@H]4C(=O)O)ccc2c1`, the inhibition result with Escherichia coli [2] was “inactive”.

Turning to `O=C(O)[C@@H]1CSc2c(-c3cccc(C(F)(F)F)c3)c(CNS(=O)(=O)c3ccccc3)cc(=O)n21`, in the data set on Escherichia coli [2], the inhibition at 200 µM is 48%.

As to `O=C(O)[C@@H]1CSc2c(-c3cccc(C(F)(F)F)c3)c(CN3CCc4ccccc4C3)cc(=O)n21`, the EC50 in the data set on Escherichia coli [1] turned out to be 130 µM. Further, the inhibition at 200 µM in the data set on Escherichia coli [2] was 84%.

As for `O=C(O)[C@@H]1CSc2c(-c3cccc(C(F)(F)F)c3)c(Cc3cccc(OCc4ccc(F)cc4)c3)cc(=O)n21`, the EC50 with Escherichia coli [1] is 3 µM. In addition, the inhibition at 200 µM in the data set on Escherichia coli [2] came out at 75%. The Activity entry in the data set with HeLa is reported as “Non-toxic”.

For `O=C(NCc1cc(=O)n2c(c1-c1cccc(C(F)(F)F)c1)SC[C@H]2C(=O)O)c1ccccc1`, the inhibition result in the data set with Escherichia coli [2] was “inactive”.

With `O=C(NCc1cc(=O)n2c(c1C1CC1)SC[C@H]2C(=O)O)c1cccc2ccccc12`, the inhibition entry in the data set on Escherichia coli [2] is “inactive”.

Take `O=C(O)[C@@H]1CSc2c(C3CC3)c(Cc3cccc4ccccc34)cc(=O)n21`: the EC50 in the data set on Escherichia coli [1] turned out to be 189 µM. For the same molecule, in the data set on Escherichia coli [2], the inhibition at 200 µM is 54%. Also, the figures for the Activity with Escherichia coli [3] and in the data set with HeLa were 7 and “Non-toxic”, respectively.

As for `O=C(O)[C@@H]1CSc2c(C3CC3)c(CN3CCc4ccccc4C3)cc(=O)n21`, in the data set on Escherichia coli [2], the inhibition result is “inactive”.

With `O=C(O)[C@@H]1CSc2c(C3CC3)c(CNS(=O)(=O)c3cccc4ccccc34)cc(=O)n21`, the inhibition result in the data set with Escherichia coli [2] is “inactive”.

Take `O=C(O)[C@@H]1CSc2c(C3CC3)c(COc3cccc4ccccc34)cc(=O)n21`: the EC50 in the data set on Escherichia coli [1] is 32 µM. Besides, the inhibition at 200 µM in the data set with Escherichia coli [2] worked out at 96%. For the same molecule, the Activity in the data set with Escherichia coli [3] is listed as 5.5; with HeLa, “Non-toxic”.

With `O=C(O)[C@@H]1CSc2c(C3CC3)c(CNS(=O)(=O)c3ccccc3)cc(=O)n21`, in the data set with Escherichia coli [2], the inhibition result is “inactive”.

Consider `O=C(O)[C@@H]1CSc2c(-c3cccc(C(F)(F)F)c3)c(Cc3ccc4[nH]ccc4c3)cc(=O)n21`, for which the EC50 in the data set on Escherichia coli [1] turned out to be 30 µM. Besides, the inhibition at 200 µM in the data set with Escherichia coli [2] is 97%. Moreover, the Activity in the data set on Escherichia coli [3] is listed as 5; in the data set with HeLa it was “Non-toxic”.

Consider `O=C(O)[C@@H]1CSc2c(-c3cccc(C(F)(F)F)c3)c(CN3CCCCC3)cc(=O)n21`, for which the inhibition at 200 µM in the data set with Escherichia coli [2] amounted to 30%.

For orientation: EC50 means the concentration at which the effect is half-maximal. As usually defined, the inhibition is the percentage by which the read-out fell short of the control.
